# Source: publication PMC11249646, “Small-Molecule Disruptors of the Interaction between Calcium- and Integrin-Binding Protein 1 and Integrin αIIbβ3 as Novel Antiplatelet Agents” (ACS Pharmacology & Translational Science, 2024)
# Read-outs that look alike come from different tables or passages of the source.
# How the values were obtained:
# [1] = target: T1, GST-CIB1 : F-scrambled peptide (Homo sapiens, UniProt Q99828); assay: FP scrambled-peptide counter screen, 1536-well format; format: binding; details: for Confirm? (counterscreen): YES/NO; for IC50: read-out: IC50 [μM] (counterscreen)
# T1 construct: made in house; host or cells: BL-21 plus RIL cells (E. coli)
# T1 sequence (Q99828 1-191): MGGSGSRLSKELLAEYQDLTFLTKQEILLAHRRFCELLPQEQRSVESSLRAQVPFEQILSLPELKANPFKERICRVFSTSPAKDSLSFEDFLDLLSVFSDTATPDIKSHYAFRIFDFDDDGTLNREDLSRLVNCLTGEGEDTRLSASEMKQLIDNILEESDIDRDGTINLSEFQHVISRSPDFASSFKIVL
# [2] = target: T2, CIB1 and αIIb interaction (CIB1-GST : F-αIIb peptide) (Homo sapiens, UniProt Q99828); assay: FP assay, 1536-well qHTS format (primary and confirmatory screen); format: binding; details: for Confirm? (confirmatory screen): YES/NO
# T2 construct: made in house; host or cells: BL-21 plus RIL cells (E. coli)
# T2 sequence (Q99828 1-191): T1 sequence (Q99828 1-191)
# [3] = counterscreen, qHTS curve class, negative sign = inhibitory curve
# [4] = confirmatory screen, qHTS curve class, negative sign = inhibitory curve
# [5] = confirmatory screen, read-out: IC50 [μM] (confirmatory screen)
# [6] = qHTS FP screen hits, Table S2, negative = inhibition
# [7] = qHTS FP screen hits, Table S2, read-out: IC50
# [8] = qHTS primary screen hits, Table S2, negative = inhibition
# [9] = qHTS primary screen hits, Table S2, negative sign = inhibitory curve, several classes where COUNT > 1
# [10] = qHTS primary screen hits, Table S2, read-out: IC50
# [11] = qHTS FP screen hits, Table S2, one class per curve where COUNT > 1, negative sign = inhibitory curve
SMILES,Efficacy (%) (counterscreen) ([1]; counterscreen),"Curve Class (counterscreen) [1, 3]",Efficacy (%) (confirmatory screen) ([2]; confirmatory screen),Confirm? (confirmatory screen) ([2]; confirmatory screen),"Curve Class (confirmatory screen) [2, 4]","IC50 [2, 5] [µM]","Efficacy (%) [2, 6] [%]","IC50 [2, 7] [µM]",IC50 ([1]; counterscreen) [µM],"Efficacy (%) [2, 8] [%]","Curve Class [2, 9]","IC50 [2, 10] [µM]","Curve Class [2, 11]",also measured
Cn1c(NC2=NC3(CCCC3)C3=C(CCCC3=O)N2)nc2ccccc21.O=C(O)C(F)(F)F [NCGC00188583-01],-13,4,-31,YES,-2.4,89.1,-27,7.1,–,–,–,–,–,Confirm? (counterscreen) ([1]; counterscreen): YES
CN(C)c1ccc(NC(=S)N/N=C2\C(=O)Nc3ccccc32)cc1.O=C(O)C(F)(F)F [NCGC00229526-01],-44,-1.2,-73,YES,-1.4,10,–,–,22.4,-38,-1.2,3.5,–,–
Cc1cc(/N=N/c2ccc(S(=O)(=O)Nc3ccccn3)cc2)c(N)cc1O [NCGC00356068-01],-44,-1.2,-64,YES,-2.2,39.8,-50,35.5,44.7,–,–,–,-2.2,–
O=C(O)C(F)(F)F.O=S(=O)(Nc1nccs1)c1ccc(NCc2cc(F)cc(Cl)c2O)cc1 [NCGC00273967-01],170,3,-40,YES,-1.4,31.6,–,–,39.8,-28,-1.4,1.8,–,Confirm? (counterscreen) ([1]; counterscreen): YES
Cl.O=[N+]([O-])c1cccc(CNc2ccc(S(=O)(=O)Nc3nccs3)cc2)c1O [NCGC00273554-01],-43,-2.2,-49,YES,-2.4,22.4,–,–,50.1,-27,-1.4,7.1,–,–
Cn1cnc(-c2nccc3c(O)nc(OCCCC(F)(F)F)nc23)c1.O=C(O)C(F)(F)F [NCGC00381768-02],–,–,–,–,–,–,–,–,–,-25,-2.4,31.6,–,"Curve Class (counterscreen) ([1]; Table S3, counterscreen, qHTS curve class, a negative sign marks inhibitory curves): 4; Efficacy (%) (counterscreen) ([1]; Table S3, counterscreen, negative = inhibition): -28%; Curve Class (confirmatory screen) ([2]; Table S3, confirmatory screen, qHTS curve class, a negative sign marks inhibitory curves): 4; Efficacy (%) (confirmatory screen) ([2]; Table S3, confirmatory screen, negative = inhibition): -16%"
CN(C(=O)CN(CCO)CC(=O)N(C)C(C)(C)Cc1ccccc1)C(C)(C)Cc1ccccc1 [NCGC00016382-07],-33,-2.4,-52,YES,-3,79.4,-59,28.2,70.8,–,–,–,-3,–
CCN1C(=O)c2ccccc2[S+]([O-])c2ccc(C(=O)Nc3ncc(C)s3)cc21 (stereo not shown) [NCGC00241655-01],–,–,–,–,–,–,–,–,–,-23,-2.4,39.8,–,"COUNTERSCREEN Efficacy (%) ([1]; counterscreen): -33%; COUNTERSCREEN Curve Class ([1]; counterscreen, qHTS curve class): 4; CONFIRMATORY SCREEN Efficacy (%) ([2]; confirmatory screen): -10%; CONFIRMATORY SCREEN Curve Class ([2]; confirmatory screen, qHTS curve class): 4"
Nc1ccc(CNc2ccc(S(=O)(=O)Nc3nccs3)cc2)c(O)c1.O=C(O)C(F)(F)F [NCGC00273962-01],-61,-2.2,-75,YES,-3,89.1,–,–,50.1,-29,–,39.8,–,"Curve Class ([2]; qHTS primary screen hits, Table S2, negative sign = inhibitory curve): -2.4"
N#Cc1ccc(Nc2nc(-c3ccc(O)cc3O)cs2)cc1C(F)(F)F [NCGC00386816-01],-65,-2.2,-72,YES,-2.2,50.1,-71,35.5,28.2,–,–,–,-2.2,–
